Tests used:
Test in all cases: In vitro antibacterial activity, agar dilution MIC
[1] = tested on: Micrococcusluteus ATCC 4698; format: cell-based, Micrococcus luteus; details: code PP, BHI agar, 35-37° C., 20-24 hours, unit assumed
Description: (§1) Each plate was inoculated with 1:100 (or 1:10 for slow-growing strains, such as Micrococcus and Streptococcus) dilutions of up to 32 different microorganisms, using a Steers replicator block. The inoculated plates were incubated at 35-37° C. for 20-24 hours. In addition, a control plate using BHI agar with no test compound was prepared and incubated at the beginning and end of each test. A plate containing erythromycin A was also prepared to provide test-to-test comparability. […] After incubation, each plate was visually inspected. The minimum inhibitory concentration (MIC) was defined as the lowest concentration of drug yielding no growth, a slight haze, or sparsely isolated colonies on the inoculum spot as compared to the growth control.

Escherichiacoli JUHL = format: cell-based, Escherichia coli; details: code QQ, BHI agar, 35-37° C., 20-24 hours, unit assumed
Description: as §1

Escherichiacoli SS = format: cell-based, Escherichia coli; details: code RR, BHI agar, 35-37° C., 20-24 hours, unit assumed
Description: as §1

[2] = tested on: Streptococcus Pneumonia 5979; format: cell-based; details: code ZZ, BHI agar, 35-37° C., 20-24 hours, unit assumed
Description: as §1, with “test.” for “test. A plate containing erythromycin A was also prepared to provide test-to-test comparability.”

[3] = tested on: Streptococcus Pneumonia 5649; format: cell-based; details: code ZA, BHI agar, 35-37° C., 20-24 hours, unit assumed
Description: as §1

[4] = tested on: Streptococcus Pneumonia GYR 1171; format: cell-based; details: code YY, BHI agar, 35-37° C., 20-24 hours
Description: as §1

[5] = tested on: Streptococcus Pneumonia ATCC 6303; format: cell-based; details: code XX, BHI agar, 35-37° C., 20-24 hours, unit assumed
Description: as §1

[6] = tested on: Streptococcus pyogenes EES61; format: cell-based; details: code LL, BHI agar, 35-37° C., 20-24 hours, unit assumed
Description: as §1

[7] = tested on: Streptococcus bovis A-5169; format: cell-based; details: code JJ, BHI agar, 35-37° C., 20-24 hours, unit assumed
Description: as §1

[8] = tested on: Streptococcus pyogenes PIU 2548; format: cell-based; details: code NN, BHI agar, 35-37° C., 20-24 hours, unit assumed
Description: as §1

Candida albicans CCH 442 = format: cell-based; details: code TT, BHI agar, 35-37° C., 20-24 hours, unit assumed
Description: as §1

[9] = tested on: Staphylococcus aureus NCTC 10649M; format: cell-based; details: code EE, BHI agar, 35-37° C., 20-24 hours, unit assumed
Description: as §1

[10] = tested on: Streptococcus pyogenes 930; format: cell-based; details: code MM, BHI agar, 35-37° C., 20-24 hours, unit assumed
Description: as §1

[11] = tested on: Streptococcus agalactiae CMX 508; format: cell-based; details: code KK, BHI agar, 35-37° C., 20-24 hours, unit assumed
Description: as §1

[12] = tested on: Staphylococcus aureus A-5278; format: cell-based; details: code CC, BHI agar, 35-37° C., 20-24 hours, unit assumed
Description: as §1

[13] = tested on: Staphylococcus aureus ATCC 6538P; format: cell-based; details: code AA, BHI agar, 35-37° C., 20-24 hours, unit assumed
Description: as §1

[14] = tested on: Staphylococcus aureus A-5177; format: cell-based; details: code BB, BHI agar, 35-37° C., 20-24 hours, unit assumed
Description: as §1

[15] = tested on: Nocardia Asteroides ATCC 99700; format: cell-based; details: code VV, BHI agar, 35-37° C., 20-24 hours, unit assumed
Description: as §1

[16] = tested on: Staphylococcus aureus 1775; format: cell-based; details: code GG, BHI agar, 35-37° C., 20-24 hours, unit assumed
Description: as §1

[17] = tested on: Staphylococcus epidermidis 3519; format: cell-based; details: code HH, BHI agar, 35-37° C., 20-24 hours, unit assumed
Description: as §1

[18] = tested on: Mycobacterium smegmatis ATCC 114; format: cell-based; details: code UU, BHI agar, 35-37° C., 20-24 hours, unit assumed
Description: as §1

[19] = tested on: Haemophilislnfluenzae DILL AMP R; format: cell-based, Haemophilus influenzae; details: code WW, BHI agar, 35-37° C., 20-24 hours, unit assumed
Description: Representative compounds of the present invention were assayed in vitro for antibacterial activity as follows: twelve petri dishes containing successive aqueous dilutions of the test compound mixed with 10 mL of sterilized Brain Heart Infusion (BHI) agar (Difco 0418-01-5) were prepared. Each plate was inoculated with 1:100 (or 1:10 for slow-growing strains, such as Micrococcus and Streptococcus) dilutions of up to 32 different microorganisms, using a Steers replicator block. The inoculated plates were incubated at 35-37° C. for 20-24 hours. In addition, a control plate using BHI agar with no test compound was prepared and incubated at the beginning and end of each test.
A plate containing erythromycin A was also prepared to provide test-to-test comparability.
After incubation, each plate was visually inspected. The minimum inhibitory concentration (MIC) was defined as the lowest concentration of drug yielding no growth, a slight haze, or sparsely isolated colonies on the inoculum spot as compared to the growth control.

Molecule: CCC1OC(=O)C(CS(=O)(=O)O)C(=O)C(C)C(OC2OC(C)CC(N(C)C)C2O)C(C)(OCC=Cc2cnc3ccccc3c2)CC(C)C(=O)C(C)C2NC(=O)OC12C (stereo not shown) [Example 6, Compound of Formula (XI), R^p is Hydrogen, Y is Hydrogen, R^2 is 3-quinolyl, R^3 is —CH2SO3H and R^4 is Hydrogen]
- Antibacterial Activity (MIC's) [1]: 0.39 µg/mL
- Antibacterial Activity (MIC's) (Escherichiacoli JUHL): > 100 µg/mL
- Antibacterial Activity (MIC's) (Escherichiacoli SS): 3.1 µg/mL
- Antibacterial Activity (MIC's) [2]: 64 µg/mL
- Antibacterial Activity (MIC's) [3]: 2 µg/mL
- Antibacterial Activity (MIC's) ([4]; unit assumed): 0.125 µg/mL
- Antibacterial Activity (MIC's) [5]: 0.25 µg/mL
- Antibacterial Activity (MIC's) [6]: 0.2 µg/mL
- Antibacterial Activity (MIC's) [7]: 0.05 µg/mL
- Antibacterial Activity (MIC's) [8]: 0.78 µg/mL
- Antibacterial Activity (MIC's) (Candida albicans CCH 442): > 100 µg/mL
- Antibacterial Activity (MIC's) [9]: 0.78 µg/mL
- Antibacterial Activity (MIC's) [10]: 25 µg/mL
- Antibacterial Activity (MIC's) [11]: 0.2 µg/mL
- Antibacterial Activity (MIC's) [12]: > 100 µg/mL
- Antibacterial Activity (MIC's) [13]: 0.39 µg/mL
- Antibacterial Activity (MIC's) [14]: 0.78 µg/mL
- Antibacterial Activity (MIC's) [15]: 0.2 µg/mL
- Antibacterial Activity (MIC's) [16]: > 100 µg/mL
- Antibacterial Activity (MIC's) [17]: 0.78 µg/mL
- Antibacterial Activity (MIC's) [18]: 12.5 µg/mL
- Antibacterial Activity (MIC's) [19]: 16 µg/mL

Molecule: CCC1OC(=O)C(CC(C(=O)OC)C(=O)OC)C(=O)C(C)C(OC2OC(C)CC(N(C)C)C2O)C(C)(OCC=Cc2cnc3ccccc3c2)CC(C)C(=O)C(C)C2NC(=O)OC12C (stereo not shown) [Example 7, Compound of Formula (XI), R^p is Hydrogen Y is Hydrogen R^2 is 3-quinolyl, R^3 is —CH CH(CO2Me)2 and R^4 is Hydrogen]
- Antibacterial Activity (MIC's) [2]: 64 µg/mL
- Antibacterial Activity (MIC's) [3]: 0.25 µg/mL
- Antibacterial Activity (MIC's) ([4]; unit assumed): 0.03 µg/mL
- Antibacterial Activity (MIC's) [5]: 0.03 µg/mL
- Antibacterial Activity (MIC's) [19]: 8 µg/mL

Molecule: Compound of Formula (I), R^p is Hydrogen, Y is Hydrogen, R^1 is —CH2CH(OH)CH(OH)—(3-quinolyl), R^3 is —CH2OH and R^4 is OH [Example 3]
- Antibacterial Activity (MIC's) [1]: 0.05 µg/mL
- Antibacterial Activity (MIC's) (Escherichiacoli JUHL): 50 µg/mL
- Antibacterial Activity (MIC's) (Escherichiacoli SS): 0.2 µg/mL
- Antibacterial Activity (MIC's) [2]: 64 µg/mL
- Antibacterial Activity (MIC's) [3]: 0.25 µg/mL
- Antibacterial Activity (MIC's) [4]: ≦0.004
- Antibacterial Activity (MIC's) [5]: 0.008 µg/mL
- Antibacterial Activity (MIC's) [6]: 0.01 µg/mL
- Antibacterial Activity (MIC's) [7]: 0.01 µg/mL
- Antibacterial Activity (MIC's) [8]: 0.1 µg/mL
- Antibacterial Activity (MIC's) (Candida albicans CCH 442): > 100 µg/mL
- Antibacterial Activity (MIC's) [9]: 0.1 µg/mL
- Antibacterial Activity (MIC's) [10]: 12.5 µg/mL
- Antibacterial Activity (MIC's) [11]: 0.01 µg/mL
- Antibacterial Activity (MIC's) [12]: > 100 µg/mL
- Antibacterial Activity (MIC's) [13]: 0.05 µg/mL
- Antibacterial Activity (MIC's) [14]: 0.05 µg/mL
- Antibacterial Activity (MIC's) [15]: 0.05 µg/mL
- Antibacterial Activity (MIC's) [16]: > 100 µg/mL
- Antibacterial Activity (MIC's) [17]: 0.05 µg/mL
- Antibacterial Activity (MIC's) [18]: 3.1 µg/mL
- Antibacterial Activity (MIC's) [19]: 2 µg/mL

— US6569836B2, “6-O-alkyl-2-nor-2-substituted ketolide derivatives” (Abbott Laboratories, priority 1999, dated 2003)
